Data from ChEMBL document CHEMBL1212714, “Dentigerumycin: a bacterial mediator of an ant-fungus symbiosis” (2009).
Values after ≈ are worked out from the molar mass of the structure shown. Active and inactive are the calls of the source. The rule behind the calls is not given here.

How the values were obtained:
[1] = Antifungal activity against Escovopsis at 37degC after 48 hrs by liquid culture assay; assay type: functional
Candida albicans [2] = assay: Antifungal activity against wild type Candida albicans at 37degC after 48 hrs by liquid culture assay; assay type: functional
Candida albicans [3] = assay: Antifungal activity against Candida albicans ATCC 200955 at 37degC after 48 hrs by liquid culture assay; assay type: functional; settings: ATCC 200955, 48 h
Candida albicans [4] = assay: Antifungal activity against Candida albicans ATCC 10231 at 37degC after 48 hrs by liquid culture assay; assay type: functional; settings: ATCC 10231, 48 h
Escovopsis = assay: Antifungal activity against Escovopsis CC011120-4 assessed as growth inhibition at 5 mg/ml by plate antifungal assay; assay type: functional
[5] = system: ant fungal cultivar CC011120-4 (mutualistic fungus); assay: Antifungal activity against ant fungal cultivar CC011120-4 assessed as growth inhibition at 5 mg/ml by plate antifungal assay

- MIC [1]: 2.8 µM (≈ 2.47 µg/mL)
- MIC (Candida albicans [2]): 1.1 µM (≈ 0.97 µg/mL)
- MIC (Candida albicans [3]): 1.1 µM (≈ 0.97 µg/mL)
- MIC (Candida albicans [4]): 1.1 µM (≈ 0.97 µg/mL)
SMILES: CCC[C@H]1CC[C@](O)([C@](C)(O)C(=O)N[C@@H]2C(=O)N3NCCC[C@@H]3C(=O)N(O)[C@@H](C)C(=O)N3NCCC[C@@H]3C(=O)N3NC[C@@H](O)C[C@H]3C(=O)N[C@@H](C)C(=O)O[C@H]2C(C)C)O[C@@H]1CC [DENTIGERUMYCIN]
- growth inhibition (GI) (Escovopsis): Active
- growth inhibition (GI) [5]: inactive
